Literature values as cited in patent US20090016973A1, “Composition and Method for the Prevention of Oral Disease” (MICROPURE, INC., priority 2007, published 2009).

Experiments:
dehydrogenase enzymes = conditions: within the first 5 seconds of reaction; Roller et al., 1986
protein synthesis [1] = conditions: Roller et al., 1986
protein synthesis [2] = conditions: Benarde et al., 1967
Escherichia coli = conditions: Berg et al., 1986; leading to cell death

[O][Cl+][O-] [chlorine dioxide]
inhibition of total dehydrogenase enzymes (dehydrogenase enzymes): inhibited completely | inhibition of protein synthesis (protein synthesis [1]): partially inhibited | effect on protein synthesis (protein synthesis [2]): abrupt inhibition | permeability control of the membrane (Escherichia coli): impaired
